From US6696407B1, “Huntington's disease treatment comprising administering aldose reductase inhibitors to increase striatal CNTF” (The Regents of the University of California, priority 1997, dated 2004)

System: CNTF mRNA
Test: Sciatic nerve CNTF mRNA by Northern blot
Assay type: in vivo, rat
Details: control and galactose-fed rats
Experimental: These studies were conducted with the approval of the San Diego Veterans Administration Animal Studies Subcommittee. Female Sprague-Dawley rats (240-300 g; Charles River, San Diego, Calif.) were housed in cages with wire bottoms to reduce contact with urine and feces. Groups were established and fed either a 40% D-galactose diet or a control diet specially formulated by Purina that contained 40% solka floc, a nonnutritive fiber, to balance nutritional intake. All diets contained 100% of the micronutrients required by rats and, with water, were available ad libitum. Each of these diet groups contained animals that were treated with the ARI, Ponalrestat (50 mg/kg), daily by oral gavage. […] Under deep anesthesia, motor nerve conduction velocity (MNCV) was measured in the left hindlimb prior to removal of the sciatic nerve. […]
CNTF mRNA levels in sciatic nerve were obtained by first homogenizing 1 cm segments of nerve on ice for 30 seconds in 4 M guanidine thiocyanate containing 0.1 M β-mercaptoethanol, 25 mM sodium citrate and 0.5% sarcosyl (pH 7.0). […] Autoradiographic bands were quantified using an Ultrascan XL laser densitometer (LKB, Uppsala, Sweden). Ratios of CNTF:GAPDH were determined using optical densities in the linear range for both probes.

In the case of `O=C(O)Cc1nn(Cc2ccc(Br)cc2F)c(=O)c2ccccc12` [Ponalrestat, 3-(4-bromo-2-fluorobenzyl)-4-oxo-3H-phthalazin-1-ylacetic acid], the “Level of CNTF message, CNTF:GAPDH ratios” value was “no marked effect”.
